Measurements as given in PubChem BioAssay (NCI).
Values joined by “and” are separate entries in the source; they are usually repeats but may differ in a detail not shown here. Equal values may be shown once.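 48-hour exposure; five concentrations; linearly interpolated endpoints. Abbreviation: GI50, concentration required for 50% inhibition of growth. The concentration for full growth arrest is given as TGI.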

How the values were obtained:
Assay in all cases: NCI tumour cell line growth inhibition, 48 h
786-0 renal = tested on: 786-0 renal
A498 renal = tested on: A498 renal
A549 NSCLC = tested on: A549 NSCLC
ACHN renal = tested on: ACHN renal
CAKI-1 renal = tested on: CAKI-1 renal
COLO 205 colon = tested on: COLO 205 colon
DLD-1 colon = tested on: DLD-1 colon
DMS 114 small cell lung = tested on: DMS 114 small cell lung
DMS 273 small cell lung = tested on: DMS 273 small cell lung
EKVX NSCLC = tested on: EKVX NSCLC
HCC-2998 colon = tested on: HCC-2998 colon
HCT-116 colon = tested on: HCT-116 colon
HCT-15 colon = tested on: HCT-15 colon
HL-60(TB) leukemia = tested on: HL-60(TB) leukemia
HOP-18 NSCLC = tested on: HOP-18 NSCLC
HOP-62 NSCLC = tested on: HOP-62 NSCLC
HOP-92 NSCLC = tested on: HOP-92 NSCLC
HT29 colon = tested on: HT29 colon
IGROV1 ovarian = tested on: IGROV1 ovarian
K-562 leukemia = tested on: K-562 leukemia
KM12 colon = tested on: KM12 colon
KM20L2 colon = tested on: KM20L2 colon
LOX IMVI melanoma = tested on: LOX IMVI melanoma
LXFL 529 NSCLC = tested on: LXFL 529 NSCLC
MALME-3M melanoma = tested on: MALME-3M melanoma
MOLT-4 leukemia = tested on: MOLT-4 leukemia
NCI-H226 lung = tested on: NCI-H226 lung
NCI-H23 lung = tested on: NCI-H23 lung
NCI-H460 lung = tested on: NCI-H460 lung
NCI-H522 lung = tested on: NCI-H522 lung
OVCAR-3 ovarian = tested on: OVCAR-3 ovarian
OVCAR-4 ovarian = tested on: OVCAR-4 ovarian
OVCAR-5 ovarian = tested on: OVCAR-5 ovarian
OVCAR-8 ovarian = tested on: OVCAR-8 ovarian
RPMI-8226 leukemia = tested on: RPMI-8226 leukemia
RXF 393 renal = tested on: RXF 393 renal
RXF-631 renal = tested on: RXF-631 renal
SF-268 CNS = tested on: SF-268 CNS
SF-295 CNS = tested on: SF-295 CNS
SF-539 CNS = tested on: SF-539 CNS
SK-MEL-2 melanoma = tested on: SK-MEL-2 melanoma
SK-MEL-28 melanoma = tested on: SK-MEL-28 melanoma
SK-OV-3 ovarian = tested on: SK-OV-3 ovarian
SN12C renal = tested on: SN12C renal
SNB-19 CNS = tested on: SNB-19 CNS
SNB-75 CNS = tested on: SNB-75 CNS
SNB-78 CNS = tested on: SNB-78 CNS
SR leukemia = tested on: SR leukemia
SW-620 colon = tested on: SW-620 colon
TK-10 renal = tested on: TK-10 renal
U251 CNS = tested on: U251 CNS
UACC-257 melanoma = tested on: UACC-257 melanoma
UACC-62 melanoma = tested on: UACC-62 melanoma
XF 498 CNS = tested on: XF 498 CNS

**Q.** Which GI50 (786-0 renal) does the source give for `COc1cc(CN[C@H]2CCc3cc(OC)c(OC)c(OC)c3-c3ccc(SC)c(=O)cc32)cc(OC)c1` here?
**A.** 30.7 nM

**Q.** And the TGI (786-0 renal)?
**A.** 30800 nM

**Q.** What about the TGI (A498 renal) of the same molecule?
**A.** 167 nM

**Q.** What about the TGI (A549 NSCLC) of the same molecule?
**A.** > 100000 nM

**Q.** And the GI50 (ACHN renal)?
**A.** 66.2 nM

**Q.** What about the TGI (ACHN renal) of the same molecule?
**A.** > 100000 nM

**Q.** And the GI50 (CAKI-1 renal)?
**A.** 28.2 nM

**Q.** And the TGI (CAKI-1 renal)?
**A.** > 100000 nM

**Q.** And the GI50 (COLO 205 colon)?
**A.** 14.5 nM

**Q.** What about the TGI (COLO 205 colon) of the same molecule?
**A.** 105 nM and 81.6 nM

**Q.** And the GI50 (DLD-1 colon)?
**A.** 23.2 nM

**Q.** What about the TGI (DLD-1 colon) of the same molecule?
**A.** > 100000 nM

**Q.** What about the GI50 (DMS 114 small cell lung) of the same molecule?
**A.** 16.6 nM

**Q.** What about the TGI (DMS 114 small cell lung) of the same molecule?
**A.** 50.5 nM and 61.3 nM

**Q.** And the GI50 (DMS 273 small cell lung)?
**A.** < 10 nM

**Q.** And the TGI (DMS 273 small cell lung)?
**A.** 140 nM

**Q.** And the GI50 (EKVX NSCLC)?
**A.** 28.7 nM

**Q.** What about the TGI (EKVX NSCLC) of the same molecule?
**A.** > 100000 nM

**Q.** What about the GI50 (HCC-2998 colon) of the same molecule?
**A.** 20.4 nM

**Q.** What about the TGI (HCC-2998 colon) of the same molecule?
**A.** 108 nM and 74.8 nM

**Q.** What about the GI50 (HCT-116 colon) of the same molecule?
**A.** < 10 nM

**Q.** And the TGI (HCT-116 colon)?
**A.** 174 nM and 127 nM

**Q.** What about the TGI (HCT-15 colon) of the same molecule?
**A.** 239 nM

**Q.** What about the GI50 (HL-60(TB) leukemia) of the same molecule?
**A.** 24 nM

**Q.** And the TGI (HL-60(TB) leukemia)?
**A.** > 100000 nM

**Q.** What about the GI50 (HOP-18 NSCLC) of the same molecule?
**A.** > 100000 nM

**Q.** And the TGI (HOP-18 NSCLC)?
**A.** > 100000 nM

**Q.** What about the GI50 (HOP-62 NSCLC) of the same molecule?
**A.** 81.4 nM

**Q.** What about the TGI (HOP-62 NSCLC) of the same molecule?
**A.** > 100000 nM

**Q.** What about the GI50 (HOP-92 NSCLC) of the same molecule?
**A.** 207 nM

**Q.** What about the TGI (HOP-92 NSCLC) of the same molecule?
**A.** 68700 nM

**Q.** What about the GI50 (HT29 colon) of the same molecule?
**A.** < 10 nM

**Q.** And the TGI (HT29 colon)?
**A.** 62.7 nM and 25.1 nM

**Q.** What about the GI50 (IGROV1 ovarian) of the same molecule?
**A.** 69 nM

**Q.** And the TGI (IGROV1 ovarian)?
**A.** > 100000 nM

**Q.** And the TGI (K-562 leukemia)?
**A.** 10400 nM

**Q.** What about the GI50 (KM12 colon) of the same molecule?
**A.** < 10 nM

**Q.** What about the TGI (KM12 colon) of the same molecule?
**A.** 482 nM and 137 nM

**Q.** And the GI50 (KM20L2 colon)?
**A.** 13 nM

**Q.** What about the TGI (KM20L2 colon) of the same molecule?
**A.** 42.5 nM and 30.7 nM

**Q.** What about the GI50 (LOX IMVI melanoma) of the same molecule?
**A.** 17.3 nM

**Q.** What about the GI50 (LXFL 529 NSCLC) of the same molecule?
**A.** 21.4 nM

**Q.** What about the TGI (LXFL 529 NSCLC) of the same molecule?
**A.** > 100000 nM

**Q.** And the GI50 (MALME-3M melanoma)?
**A.** < 10 nM

**Q.** What about the TGI (MALME-3M melanoma) of the same molecule?
**A.** > 100000 nM

**Q.** And the GI50 (MOLT-4 leukemia)?
**A.** 47.6 nM

**Q.** And the TGI (MOLT-4 leukemia)?
**A.** 85500 nM

**Q.** What about the GI50 (NCI-H226 lung) of the same molecule?
**A.** 23.1 nM

**Q.** And the TGI (NCI-H226 lung)?
**A.** 95 nM and 91.9 nM

**Q.** What about the GI50 (NCI-H23 lung) of the same molecule?
**A.** 22.8 nM

**Q.** And the TGI (NCI-H23 lung)?
**A.** 78.6 nM and 492 nM

**Q.** And the GI50 (NCI-H460 lung)?
**A.** 31 nM

**Q.** What about the GI50 (NCI-H522 lung) of the same molecule?
**A.** 21.2 nM

**Q.** What about the TGI (NCI-H522 lung) of the same molecule?
**A.** 67.7 nM and 52 nM

**Q.** And the GI50 (OVCAR-3 ovarian)?
**A.** 14.5 nM

**Q.** And the TGI (OVCAR-3 ovarian)?
**A.** 127 nM and 44.4 nM

**Q.** And the TGI (OVCAR-4 ovarian)?
**A.** > 100000 nM

**Q.** And the GI50 (OVCAR-5 ovarian)?
**A.** > 100000 nM

**Q.** And the TGI (OVCAR-5 ovarian)?
**A.** > 100000 nM

**Q.** What about the GI50 (OVCAR-8 ovarian) of the same molecule?
**A.** 40 nM

**Q.** And the TGI (OVCAR-8 ovarian)?
**A.** 31800 nM

**Q.** And the TGI (RPMI-8226 leukemia)?
**A.** 24200 nM

**Q.** And the TGI (RXF 393 renal)?
**A.** 37.2 nM

**Q.** And the TGI (RXF-631 renal)?
**A.** 358 nM

**Q.** What about the GI50 (SF-268 CNS) of the same molecule?
**A.** 24.8 nM

**Q.** What about the GI50 (SF-295 CNS) of the same molecule?
**A.** 18.7 nM

**Q.** And the GI50 (SF-539 CNS)?
**A.** 17.3 nM

**Q.** And the TGI (SF-539 CNS)?
**A.** 45.5 nM and 42.4 nM

**Q.** What about the GI50 (SK-MEL-2 melanoma) of the same molecule?
**A.** 18.4 nM

**Q.** What about the TGI (SK-MEL-2 melanoma) of the same molecule?
**A.** 474 nM

**Q.** What about the GI50 (SK-MEL-28 melanoma) of the same molecule?
**A.** < 10 nM

**Q.** And the TGI (SK-MEL-28 melanoma)?
**A.** > 100000 nM

**Q.** What about the GI50 (SK-OV-3 ovarian) of the same molecule?
**A.** 17.1 nM

**Q.** What about the GI50 (SN12C renal) of the same molecule?
**A.** 62.3 nM

**Q.** And the TGI (SN12C renal)?
**A.** > 100000 nM

**Q.** And the TGI (SNB-19 CNS)?
**A.** > 100000 nM

**Q.** What about the TGI (SNB-75 CNS) of the same molecule?
**A.** 64.1 nM

**Q.** And the GI50 (SNB-78 CNS)?
**A.** < 10 nM

**Q.** And the TGI (SNB-78 CNS)?
**A.** > 100000 nM

**Q.** And the TGI (SR leukemia)?
**A.** 19400 nM

**Q.** And the GI50 (SW-620 colon)?
**A.** < 10 nM

**Q.** What about the TGI (SW-620 colon) of the same molecule?
**A.** > 100000 nM

**Q.** And the GI50 (TK-10 renal)?
**A.** 41.2 nM

**Q.** What about the TGI (TK-10 renal) of the same molecule?
**A.** 77100 nM

**Q.** And the GI50 (U251 CNS)?
**A.** 24.7 nM

**Q.** And the TGI (U251 CNS)?
**A.** 87.3 nM and 63.5 nM

**Q.** And the GI50 (UACC-257 melanoma)?
**A.** 103 nM

**Q.** What about the TGI (UACC-257 melanoma) of the same molecule?
**A.** > 100000 nM

**Q.** And the TGI (UACC-62 melanoma)?
**A.** 60.5 nM

**Q.** And the TGI (XF 498 CNS)?
**A.** 977 nM
